# Source: patent US10233195B2, “Anti-fibrotic pyridinones” (InterMune, Inc., priority 2014, dated 2019)
# System: TGF-b induced Endothelin-1 production
# Test: ET-1 assay: inhibitory effect on TGF-b induced endothelin-1 production
# Type: cell-based
# Details: Homo sapiens, Fibroblast; fibroblasts, stimulant (TGFb, serum, LPA etc), ET-1 in media by ELISA, 4-parameter fit
# Procedure, shortened: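 Fibroblasts (primary human lung/dermal, HFL-1, 3T3) serum-starved 0-48 h, preincubated ~30 min with compound, then stimulated (TGFb, serum or LPA) for 16-48 h. Secreted ET-1 measured by ELISA; EC50 from 4-parameter logistic fit, with CC50 from ATPlite in the same wells.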
row,SMILES,EC50 [µM]
1,CCOc1ccc(-n2cc(-c3ccc4ocnc4c3)c(C)cc2=O)c(C)c1 [Compound 420],50 to 200
2,Cc1cc(=O)n(-c2ccc(Cl)cc2)cc1-c1ccc2scnc2c1 [Compound 421],50 to 200
3,Cc1cc(=O)n(-c2ccc(Cl)cc2)cc1-c1ccc2ocnc2c1 [Compound 422],> 200
4,Cc1cc(=O)n(-c2ccc(OC(F)(F)F)cc2)cc1-c1cccc2c1OCC(=O)N2 [Compound 423],> 200
5,Cc1cc(=O)n(-c2ccc(OC(F)(F)F)cc2)cc1-c1cccc2c1NC(=O)CO2 [Compound 426],> 200
6,Cc1cc(=O)n(-c2ccc(OC(F)(F)F)cc2)cc1-c1cccc2c1N(C)C(=O)CO2 [Compound 427],> 200
7,Cc1cc(=O)n(-c2ccc(OC(F)(F)F)cc2)cc1-c1ccc2[nH]c(=O)oc2c1 [Compound 429],> 200
8,CCOc1ccc(-n2cc(-c3ccc(F)cc3)ccc2=O)c(C)c1 [Compound 438],> 200
9,Cc1ccccc1-n1cc(-c2cnn(C)c2)ccc1=O [Compound 439],> 200
10,Cc1ccc(F)c(-c2ccccc2)c1 [Compound 440],> 200
11,Cc1cc(=O)n(-c2ccc(OC(F)(F)F)cc2C)cc1-c1cnn(C)c1 [Compound 442],> 200
12,Cn1cc(-c2cn(-c3ccc(OC(F)(F)F)cc3)c(=O)cc2NCc2ccc(C#N)cc2)cn1 [Compound 526],> 200
13,Cn1cc(-c2cn(-c3ccc(OC(F)(F)F)cc3)c(=O)cc2NCc2ccc(C#N)cc2F)cn1 [Compound 527],< 50
14,CCOc1ccc(CNc2cc(=O)n(-c3ccc(OC(F)(F)F)cc3)cc2-c2cnn(C)c2)c(F)c1 [Compound 528],< 50
15,Cn1cc(-c2cn(-c3ccc(OC(F)(F)F)cc3)c(=O)cc2NCc2ncccn2)cn1 [Compound 529],> 200
16,CCOc1ccc(CNc2cc(=O)n(-c3ccc(OC(F)(F)F)cc3)cc2-c2cnn(C)c2)cc1 [Compound 530],< 50
17,Cn1cc(-c2cn(-c3ccc(F)cc3)c(=O)cc2Oc2ccccc2)cn1 [Compound 532],< 50
18,COCCOc1ccc(Oc2cc(=O)n(-c3ccc(OC(F)(F)F)cc3)cc2-c2cnn(C)c2)cc1 [Compound 533],50 to 200
19,Cn1cc(-c2cn(-c3ccc(Cl)cc3)c(=O)cc2Oc2ccccc2)cn1 [Compound 534],< 50
20,CC(=O)Nc1cccc(-n2cc(-c3ccc(F)cc3)c(Oc3ccccc3)cc2=O)c1 [Compound 536],< 50
21,Cn1cc(-c2cn(-c3cccc(NC(N)=O)c3)c(=O)cc2Oc2ccccc2)cn1 [Compound 537],< 50

row,SMILES,EC50 [µM]
1,COCCOc1ccc(-n2cc(-c3cnn(C)c3)c(Oc3ccccc3)cc2=O)cc1 [Compound 540],< 50
2,CCOc1ccc(-n2cc(-c3ccc(F)cc3)c(Cl)cc2=O)c(C)c1 [Compound 541],> 200
3,Cn1cc(-c2cn(-c3ccc(O)cc3)c(=O)cc2Oc2ccccc2)cn1 [Compound 545],> 200
4,O=c1cc(NCc2ncccn2)ccn1-c1ccc(OC(F)(F)F)cc1 [Compound 546],> 200
5,CCOc1ccc(-n2cc(-c3ccc4scnc4c3)c(C)cc2=O)c(C)c1 [Compound 552],> 200
6,CCn1c(=O)oc2ccc(-c3cn(-c4ccc(OC(F)(F)F)cc4)c(=O)cc3C)cc21 [Compound 554],> 200
7,Cc1cc(=O)n(-c2ccc(OC(F)(F)F)cc2)cc1-c1cccc2[nH]c(=O)oc12 [Compound 555],> 200
8,CCn1c(=O)oc2c(-c3cn(-c4ccc(OC(F)(F)F)cc4)c(=O)cc3C)cccc21 [Compound 556],> 200
9,Cc1cc(=O)n(-c2ccc(OC(F)(F)F)cc2)cc1-c1ccc2c(c1)oc(=O)n2CCO [Compound 558],50 to 200
10,Cc1cc(=O)n(-c2ccc(F)c(NC(N)=O)c2)cc1-c1ccc(F)cc1 [Compound 559],< 50
11,Cc1cc(=O)n(-c2ccc(OC(F)(F)F)cc2)cc1-c1ccc2c(c1)OCC(=O)N2CCO [Compound 566],> 200
12,Cc1nc2c(=O)n(-c3ccc(OC(F)(F)F)cc3)cc(-c3ccc(F)cc3)c2o1 [Compound 568],> 200
13,N#Cc1ccc(-n2cc(-c3cn[nH]c3)c3nccnc3c2=O)cc1 [Compound 573],> 200
14,O=c1c2nccnc2c(-c2cnn(CCO)c2)cn1-c1ccc(OC(F)(F)F)cc1 [Compound 577],50 to 200
15,O=c1c2cccnc2c(-c2cn[nH]c2)cn1-c1ccc(OC(F)(F)F)cc1 [Compound 579],> 200
16,CCOc1ccc(-n2cc(-c3cn[nH]c3)c3ncccc3c2=O)c(C)c1 [Compound 580],< 50
17,N#Cc1ccc(-n2cc(-c3cn[nH]c3)c3ncccc3c2=O)cc1 [Compound 581],> 200
18,O=c1c2scnc2c(-c2cn[nH]c2)cn1-c1ccc(OC(F)(F)F)cc1 [Compound 582],< 50
19,Cc1nc2c(-c3cnn(Cc4ccccc4)c3)cn(-c3ccc(OC(F)(F)F)cc3)c(=O)c2s1 [Compound 586],< 50
20,Cc1nc2c(-c3cn[nH]c3)cn(-c3ccc(OC(F)(F)F)cc3)c(=O)c2s1 [Compound 587],< 50
21,CCn1ccc2c(-c3cn[nH]c3)cn(-c3ccc(OC(F)(F)F)cc3)c(=O)c21 [Compound 593],< 50

row,SMILES,EC50 [µM]
1,Cn1cc(-c2cn(-c3ccc(OC(F)(F)F)cc3)c(=O)c3c2ccn3Cc2ccccc2)cn1 [Compound 596],< 50
2,Cn1cc(-c2cn(-c3ccc(C#N)cc3)c(=O)c3c2ccn3C)cn1 [Compound 597],> 200
3,Cn1ccc2c(-c3cn[nH]c3)cn(-c3ccc(Cl)cc3)c(=O)c21 [Compound 598],< 50
4,Cn1cc(-c2cn(-c3ccc(Cl)cc3)c(=O)c3c2ccn3C)cn1 [Compound 599],< 50
5,N#Cc1ccc(-n2cc(-c3cn[nH]c3)c3cc[nH]c3c2=O)cc1 [Compound 608],50 to 200
6,CCn1ccc2c(-c3cnn(C)c3)c[nH]c(=O)c21 [Compound 611],< 50
7,Cn1cc(-c2c[nH]c(=O)c3[nH]ccc23)cn1 [Compound 612],< 50
8,Cn1cc(-c2cn(-c3ccc(OC(F)(F)F)cc3)c(=O)c3c2ccn3CCO)cn1 [Compound 614],< 50
9,CCn1nnc2c(=O)[nH]cc(-c3cnn(C)c3)c21 [Compound 622],> 200
10,Cn1cc(-c2c[nH]c(=O)c3[nH]nnc23)cn1 [Compound 623],> 200
11,Cc1cc(=O)n(-c2cccc(NC(N)=O)c2)cc1-c1cnn(C)c1 [Compound 628],< 50
12,CCn1nnc2c(-c3cn[nH]c3)cn(-c3ccc(OC(F)(F)F)cc3)c(=O)c21 [Compound 634],< 50
13,O=c1c(-c2ccc(F)cc2)c(-c2ccc(OC(F)(F)F)cc2)c1=O [Compound 666],< 50
14,CCOc1ccc(-c2c(-c3ccc(F)cc3)c(=O)c2=O)c(C)c1 [Compound 667],< 50
15,CCn1cnc2c(-c3cn[nH]c3)cn(-c3ccc(OC(F)(F)F)cc3)c(=O)c21 [Compound 669],< 50
16,CCn1cc(-c2cn(-c3ccc(OC(F)(F)F)cc3)c(=O)c3c2ncn3CC)cn1 [Compound 670],< 50
17,CCn1cnc2c(-c3cnn(C(C)C)c3)cn(-c3ccc(OC(F)(F)F)cc3)c(=O)c21 [Compound 671],< 50
18,O=c1c2[nH]cnc2c(-c2cn[nH]c2)cn1-c1ccc(OC(F)(F)F)cc1 [Compound 672],< 50
19,CC(C)n1cc(-c2cn(-c3ccc(OC(F)(F)F)cc3)c(=O)c3c2ncn3C)cn1 [Compound 673],< 50
